Source: ChEMBL document CHEMBL4265905, “Synthesis and biological evaluation of novel Jiyuan Oridonin A-1,2,3-triazole-azole derivatives as antiproliferative agents” (Eur J Med Chem, 2018)

Columns and labels:
Type in all cases: functional, cell-based
ECa-109 cell line = assay: Antiproliferative activity against human ECA109 cells after 72 hrs by MTT assay; settings: ECa-109, 72 h
MGC-803 = assay: Antiproliferative activity against human MGC803 cells after 72 hrs by MTT assay; settings: MGC-803, 72 h
MCF7 = assay: Antiproliferative activity against human MCF7 cells after 72 hrs by MTT assay; settings: MCF7, 72 h
PC-3 = assay: Antiproliferative activity against human PC3 cells after 72 hrs by MTT assay; settings: PC-3, 72 h
SMMC-7721 = assay: Antiproliferative activity against human SMMC7721 cells after 72 hrs by MTT assay; settings: SMMC-7721, 72 h
A549 = assay: Antiproliferative activity against human A549 cells after 72 hrs by MTT assay; settings: A549, 72 h

SMILES | IC50 (MGC-803) | IC50 (MCF7) | IC50 (PC-3) | IC50 (SMMC-7721) | IC50 (A549) | IC50 (ECa-109 cell line)
C=C1C(=O)[C@]23[C@H](O)[C@H]1C[C@H](O)[C@H]2[C@]12CCCC(C)(C)[C@H]1C[C@H]3O[C@@H]2OCCCn1cc(CN2C(=O)S/C(=C\c3ccccc3)C2=O)nn1 | 20 µM | 6.6 µM | 13.2 µM | – | – | 4.9 µM
C=C1C(=O)[C@]23[C@H](O)[C@H]1C[C@H](O)[C@H]2[C@]12CCCC(C)(C)[C@H]1C[C@H]3O[C@@H]2OCCCn1cc(CN2C(=O)S/C(=C/CCCCC)C2=O)nn1 | 1.2 µM | 1.9 µM | 5.3 µM | 5.3 µM | 4.8 µM | 4.2 µM
C=C1C(=O)[C@]23[C@H](O)[C@H]1C[C@H](O)[C@H]2[C@]12CCCC(C)(C)[C@H]1C[C@H]3O[C@@H]2OCCCn1cc(CN2C(=O)S/C(=C\c3ccccc3Cl)C2=O)nn1 | 25.9 µM | 7.9 µM | 18.4 µM | – | – | 2.6 µM
C=C1C(=O)[C@]23[C@H](O)[C@H]1C[C@H](O)[C@H]2[C@]12CCCC(C)(C)[C@H]1C[C@H]3O[C@@H]2OCCCn1cc(CN2C(=O)S/C(=C\c3ccc(F)c(F)c3)C2=O)nn1 | 35 µM | 4.8 µM | 16.1 µM | – | – | 3.3 µM
C=C1C(=O)[C@]23[C@H](O)[C@H]1C[C@H](O)[C@H]2[C@]12CCCC(C)(C)[C@H]1C[C@H]3O[C@@H]2OCCCn1cc(CN2C(=O)S/C(=C\c3ccc(F)cc3)C2=O)nn1 | 29.7 µM | 15.7 µM | 13.4 µM | – | – | 4.7 µM
C=C1C(=O)[C@]23[C@H](O)[C@H]1C[C@H](O)[C@H]2[C@]12CCCC(C)(C)[C@H]1C[C@H]3O[C@@H]2OCCCn1cc(CN2C(=O)S/C(=C\c3ccc(OC)cc3)C2=O)nn1 | 17.3 µM | 8.9 µM | 11.5 µM | – | – | 9.3 µM
C=C1C(=O)[C@]23[C@H](O)[C@H]1C[C@H](O)[C@H]2[C@]12CCCC(C)(C)[C@H]1C[C@H]3O[C@@H]2OCCCn1cc(CN2C(=O)S/C(=C/CC)C2=O)nn1 | 2.1 µM | 4.1 µM | 8.9 µM | 3.4 µM | 7.8 µM | 2.5 µM
C=C1C(=O)[C@]23[C@H](O)[C@H]1C[C@H](O)[C@H]2[C@]12CCCC(C)(C)[C@H]1C[C@H]3O[C@@H]2OCCCn1cc(CSc2nc3ccccc3s2)nn1 | 2.1 µM | 4.2 µM | 1.6 µM | 1.8 µM | 5.8 µM | 1.4 µM
C=C1C(=O)[C@]23[C@H](O)[C@H]1CC[C@H]2[C@@]12CO[C@]3(O)[C@@H](O)[C@@H]1C(C)(C)CC[C@@H]2O [ORIDONIN] | 34.3 µM | 64.3 µM | 43.9 µM | 30.1 µM | 25.4 µM | 33.6 µM
C=C1C(=O)[C@]23[C@H](O)[C@H]1C[C@H](O)[C@H]2[C@]12CCCC(C)(C)[C@H]1C[C@H]3O[C@@H]2OCCCn1cc(CN2C(=O)S/C(=C\c3ccc([N+](=O)[O-])cc3)C2=O)nn1 | 27.8 µM | 4.9 µM | 13.2 µM | – | – | 5.4 µM
C=C1C(=O)[C@]23[C@H](O)[C@H]1C[C@H](O)[C@H]2[C@]12CCCC(C)(C)[C@H]1C[C@H]3O[C@@H]2OCCCn1cc(CN2C(=O)S/C(=C\c3cc(OC)c(OC)c(OC)c3)C2=O)nn1 | 10.1 µM | 4.1 µM | 13.9 µM | – | – | 11.8 µM
C=C1C(=O)[C@]23[C@H](O)[C@H]1C[C@H](O)[C@H]2[C@]12CCCC(C)(C)[C@H]1C[C@H]3O[C@@H]2OCCCn1cc(CN2C(=O)SC(=C(C)C)C2=O)nn1 | 2.5 µM | 4.3 µM | 6.2 µM | 5.7 µM | 9.2 µM | 4.9 µM

Further lines, with some results ahead:

IC50 (MGC-803) | IC50 (MCF7) | IC50 (PC-3) | IC50 (SMMC-7721) | IC50 (A549) | SMILES | IC50 (ECa-109 cell line)
> 50 µM | 9.5 µM | 5.8 µM | – | – | C=C1C(=O)[C@]23[C@H](O)[C@H]1C[C@H](O)[C@H]2[C@]12CCCC(C)(C)[C@H]1C[C@H]3O[C@@H]2OCCCn1cc(CN2C(=O)CSC2=O)nn1 | 35 µM
1.7 µM | 2.6 µM | 1.4 µM | 3.5 µM | 4 µM | C=C1C(=O)[C@]23[C@H](O)[C@H]1C[C@H](O)[C@H]2[C@]12CCCC(C)(C)[C@H]1C[C@H]3O[C@@H]2OCCCn1cc(CSC2=NCCS2)nn1 | 0.8 µM
5.2 µM | 14.9 µM | 5.9 µM | – | – | C=C1C(=O)[C@]23[C@H](O)[C@H]1C[C@H](O)[C@H]2[C@]12CCCC(C)(C)[C@H]1C[C@H]3O[C@@H]2OCCCn1cc(CSc2ncccn2)nn1 | 5 µM
5.2 µM | 15.2 µM | 9.6 µM | – | – | C=C1C(=O)[C@]23[C@H](O)[C@H]1C[C@H](O)[C@H]2[C@]12CCCC(C)(C)[C@H]1C[C@H]3O[C@@H]2OCCCn1cc(CSc2nncs2)nn1 | 5.6 µM
4.5 µM | 14.6 µM | 7.7 µM | – | – | C=C1C(=O)[C@]23[C@H](O)[C@H]1C[C@H](O)[C@H]2[C@]12CCCC(C)(C)[C@H]1C[C@H]3O[C@@H]2OCCCn1cc(CSc2nnc(C)s2)nn1 | 6.2 µM
9.7 µM | 7.6 µM | 10 µM | 12 µM | 13.6 µM | C=C1C(=O)[C@]23[C@H](O)[C@H]1C[C@H](O)[C@H]2[C@]12CCCC(C)(C)[C@H]1C[C@H]3OC2OCCCN=[N+]=[N-] (single isomer, unassigned) | 10.1 µM
8.9 µM | 13.6 µM | 11.6 µM | – | – | C=C1C(=O)[C@]23[C@H](O)[C@H]1C[C@H](O)[C@H]2[C@]12CCCC(C)(C)[C@H]1C[C@H]3O[C@@H]2OCCCn1cc(CSc2nnnn2C)nn1 | 8.6 µM
27.1 µM | 21.1 µM | 24.3 µM | 14.6 µM | 16.4 µM | C=C1C(=O)[C@]23[C@H](O)[C@H]1C[C@H](O)[C@H]2[C@]12CCCC(C)(C)[C@H]1C[C@H]3O[C@H]2O | 25.2 µM
